Consider 20 compounds from US11034699B2, “Ethynyl derivatives” (Hoffmann-La Roche Inc., priority 2015, dated 2021).

One test has as its system rats. The note with it: cited from earlier work.
For test [1], the system named is mice. The note with it: cited from earlier work.
In test [2] the test system is mice. The note with it: cited from earlier work. The source holds these as a separate data set.
The target in another test is human mGlu4 receptor (Homo sapiens (Human), UniProt Q14833). Description: Ca2+ mobilization in vitro assay on recombinant human mGlu4 expressed in HEK293 cells (PAM). The test is classed as cell-based. Conditions: for Emax: HEK293, maximal response in % of maximal stimulatory effect of saturating L-AP4, read-out: Eff. (%); for EC50: HEK293 cells, human mGlu4, L-AP4 at EC20. How it is done: Determination of EC50 Values Using a Ca2+ Mobilization In Vitro Assay on Recombinant Human mGlu4 Expressed in HEK293 Cells:
A monoclonal HEK-293 cell line stably transfected with a cDNA encoding for the human mGlu4 receptor was generated; for the work with mGlu4 Positive Allosteric Modulators (PAMs), a cell line with low receptor expression levels and low constitutive receptor activity was selected to allow the differentiation of agonistic versus PAM activity. Cells were cultured according to standard protocols (Freshney, 2000) in Dulbecco's Modified Eagle Medium with high glucose supplemented with 1 mM glutamine, 10% (vol/vol) heat-inactivated bovine calf serum, Penicillin/Streptomycin, 50 μg/ml hygromycin and 15 μg/ml blasticidin (all cell culture reagents and antibiotics from Invitrogen, Basel, Switzerland).
About 24 hrs before an experiment, 5×10^4 cells/well were seeded in poly-D-lysine coated, black/clear-bottomed 96-well plates. The cells were loaded with 2.5 μM Fluo-4AM in loading buffer (1×HBSS, 20 mM HEPES) for 1 hr at 37° C. and washed five times with loading buffer. The cells were transferred into a Functional Drug Screening System 7000 (Hamamatsu, Paris, France), and 11 half logarithmic serial dilutions of test compound at 37° C. were added and the cells were incubated for 10-30 min. with on-line recording of fluorescence. Following this pre-incubation step, the agonist (2S)-2-amino-4-phosphonobutanoic acid (L-AP4) was added to the cells at a concentration corresponding to EC20 with on-line recording of fluorescence; in order to account for day-to-day variations in the responsiveness of cells, the EC20 of L-AP4 was determined immediately ahead of each experiment by recording of a full dose-response curve of L-AP4.
Responses were measured as peak increase in fluorescence minus basal (i.e. fluorescence without addition of L-AP4), normalized to the maximal stimulatory effect obtained with saturating concentrations of L-AP4. Graphs were plotted with the % maximal stimulatory using XLfit, a curve fitting program that iteratively plots the data using Levenburg Marquardt algorithm. The single site competition analysis equation used was y=A+((B−A)/(1+((x/C)D))), where y is the % maximal stimulatory effect, A is the minimum y, B is the maximum y, C is the EC50, x is the log 10 of the concentration of the competing compound and D is the slope of the curve (the Hill Coefficient). From these curves the EC50 (drug concentration at which 50% of the maximal receptor activation was achieved), the Hill coefficient as well as the maximal response in % of the maximal stimulatory effect obtained with saturating concentrations of L-AP4 were calculated (see FIG. 1).
A depression of the signal observed after addition of the EC20 concentration of L-AP4 was indicative of an inhibitory activity of the test compound.

The subject of another test is rodent. The note with it: 6-OHDA rodent model of PD; cited from earlier work.
The test system of test [3] is mice. Conditions: mice treated with MPTP; cited from earlier work.

human mGlu4 receptor, sequence (Q14833 33-912): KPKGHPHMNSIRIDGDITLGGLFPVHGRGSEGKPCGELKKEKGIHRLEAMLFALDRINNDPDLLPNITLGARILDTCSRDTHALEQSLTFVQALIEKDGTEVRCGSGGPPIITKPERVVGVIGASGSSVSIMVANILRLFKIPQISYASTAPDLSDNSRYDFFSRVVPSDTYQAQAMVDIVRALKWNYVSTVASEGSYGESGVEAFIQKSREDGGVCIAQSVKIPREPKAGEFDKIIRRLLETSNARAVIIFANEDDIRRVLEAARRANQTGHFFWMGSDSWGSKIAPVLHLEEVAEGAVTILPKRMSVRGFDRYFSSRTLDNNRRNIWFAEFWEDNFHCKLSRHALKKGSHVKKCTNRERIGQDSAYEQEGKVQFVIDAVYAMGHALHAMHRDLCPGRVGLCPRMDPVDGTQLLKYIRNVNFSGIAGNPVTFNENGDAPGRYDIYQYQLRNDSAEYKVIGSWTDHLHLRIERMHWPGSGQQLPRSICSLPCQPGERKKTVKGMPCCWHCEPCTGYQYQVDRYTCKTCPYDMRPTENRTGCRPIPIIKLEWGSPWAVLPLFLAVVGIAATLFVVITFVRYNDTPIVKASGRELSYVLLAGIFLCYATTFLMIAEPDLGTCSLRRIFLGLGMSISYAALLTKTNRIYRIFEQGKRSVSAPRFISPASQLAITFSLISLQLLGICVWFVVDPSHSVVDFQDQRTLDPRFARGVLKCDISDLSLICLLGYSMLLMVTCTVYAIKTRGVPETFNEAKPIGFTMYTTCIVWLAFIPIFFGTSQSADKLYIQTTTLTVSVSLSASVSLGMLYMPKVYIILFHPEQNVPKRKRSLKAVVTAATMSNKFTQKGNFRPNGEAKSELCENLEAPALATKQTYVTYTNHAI

On to `Cc1ccnc(Nc2nc(-c3cn[nH]c3)c(C)s2)n1` [ADX88178], for which, in the test on rats (rat, after oral dosing), the “profile in the rat EPM test” value is recorded as “anxiolytic-like profile”. Further, the “activity in EPM” value with rats (rats) and in the test with mice [2] was “active” in each case. Besides, the “activity in marble burying test” value in the test with mice [1] was “active”.

Turning to `CN1C(=O)N(c2c(F)cc(C#Cc3ccccc3)cc2F)C(=O)C[C@]12CCCCc1c2cnn1C` [Example 16, (4S)-3′-[2,6-Difluoro-4-(2-phenylethynyl)phenyl]-1,1′-dimethyl-spiro[5,6,7,8-tetrahydrocyclohepta[c]pyrazole-4,6′-hexahydropyrimidine]-2′,4′-dione], at human mGlu4 receptor, the Emax came out at 137% and the concentration for a half-maximal effect (EC50) came to 34 nM.

As to `CN1C(=O)N(c2c(F)cc(C#Cc3ccccc3)cc2F)C(=O)C[C@]12CCCCc1nn(C)cc12` [Example 17, (4S)-3′-[2,6-Difluoro-4-(2-phenylethynyl)phenyl]-1′,2-dimethyl-spiro[5,6,7,8-tetrahydrocyclohepta[c]pyrazole-4,6′-hexahydropyrimidine]-2′,4′-dione], on human mGlu4 receptor, the Emax was found to be 131% and the EC50 turned out to be 39 nM.

`CN1C(=O)N(c2c(F)cc(C#Cc3ccccc3)cc2F)C(=O)C[C@]12CCCc1ccncc12` [Example 1, (8S)-3′-[2,6-Difluoro-4-(2-phenylethynyl)phenyl]-1′-methyl-spiro[6,7-dihydro-5H-isoquinoline-8,6′-hexahydropyrimidine]-2′,4′-dione]: at human mGlu4 receptor, the Emax came to 101% and the EC50 came out at 58 nM.

With `CCN1C(=O)N(c2c(F)cc(C#Cc3ccccc3)cc2F)C(=O)C[C@]12CCCc1ccncc12` [Example 11, (8S)-3′-[2,6-Difluoro-4-(2-phenylethynyl)phenyl]-1′-ethyl-spiro[6,7-dihydro-5H-isoquinoline-8,6′-hexahydropyrimidine]-2′,4′-dione], on human mGlu4 receptor, the Emax was found to be 130% and the EC50 is 114 nM.

`CN1C(=O)N(c2c(F)cc(C#Cc3ccccc3)cc2F)C(=O)C[C@]12CCc1ncccc12` [Example 4, (5S)-3′-[2,6-Difluoro-4-(2-phenylethynyl)phenyl]-1′-methyl-spiro[6,7-dihydrocyclopenta[b]pyridine-5,6′-hexahydropyrimidine]-2′,4′-dione]: at human mGlu4 receptor, the Emax stood at 115% and the EC50 is 94 nM.

Regarding `CN1C(=O)N(c2c(F)cc(C#Cc3cccnc3)cc2F)C(=O)C[C@]12COCc1ccccc12` [Example 10, (6S)-3-[2,6-Difluoro-4-[2-(3-pyridyl)ethynyl]phenyl]-1-methyl-spiro[hexahydropyrimidine-6,4′-isochromane]-2,4-dione], on human mGlu4 receptor, the Emax came out at 118% and the EC50 came out at 43 nM.

`CN1C(=O)N(c2c(F)cc(C#Cc3ccccc3)cc2F)C(=O)C[C@]12CCCCc1[nH]ncc12` [Example 15, (4S)-3′-[2,6-Difluoro-4-(2-phenylethynyl)phenyl]-1′-methyl-spiro[5,6,7,8-tetrahydro-1H-cyclohepta[c]pyrazole-4,6′-hexahydropyrimidine]-2′,4′-dione]: at human mGlu4 receptor, the Emax was 133% and the EC50 is 54 nM.

For `CN1C(=O)N(c2c(F)cc(C#Cc3cccnc3)cc2F)C(=O)C[C@]12CCCc1ccccc12` [Example 2, (6S)-3-[2,6-Difluoro-4-[2-(3-pyridyl)ethynyl]phenyl]-1-methyl-spiro[hexahydropyrimidine-6,1′-tetralin]-2,4-dione], on human mGlu4 receptor, the Emax was 101% and the EC50 amounted to 52 nM.

`N[C@@H](CCP(=O)(O)O)C(=O)O` [L-AP4, (2S)-2-amino-4-phosphonobutanoic acid]: the neuroprotective effects entry in the test with rodent is reported as “neuroprotective effects”.

As for `O=C(Nc1ccccc1)C12CC1/C(=N\O)c1ccccc1O2` (single isomer, unassigned; (-)) [(−)-PHCCC], the nigrostriatal degeneration result with mice [3] is “reduced nigrostriatal degeneration”.

For `CN1C(=O)N(c2c(F)cc(C#Cc3ccccc3)cc2F)C(=O)C[C@]12CCCc1nn(C)cc12` [Example 13, (4S)-3′-[2,6-Difluoro-4-(2-phenylethynyl)phenyl]-1′,2-dimethyl-spiro[6,7-dihydro-5H-indazole-4,6′-hexahydropyrimidine]-2′,4′-dione], on human mGlu4 receptor, the Emax turned out to be 165% and the EC50 is 39 nM.

Take `CN1C(=O)N(c2c(F)cc(C#Cc3cccnc3)cc2F)C(=O)C[C@]12CCc1ccccc12` [Example 3, (6S)-3-[2,6-Difluoro-4-[2-(3-pyridyl)ethynyl]phenyl]-1-methyl-spiro[hexahydropyrimidine-6,1′-indane]-2,4-dione]: at human mGlu4 receptor, the Emax was determined as 94% and the EC50 came to 61 nM.

For `CN1C(=O)N(c2c(F)cc(C#Cc3cccnc3)cc2F)C(=O)C[C@]12CCOc1ccccc12` [Example 8, (4S)-3′-[2,6-Difluoro-4-[2-(3-pyridyl)ethynyl]phenyl]-1′-methyl-spiro[chromane-4,6′-hexahydropyrimidine]-2′,4′-dione], on human mGlu4 receptor, the Emax is 145% and the EC50 is 88 nM.

For the compound `CN1C(=O)N(c2c(F)cc(C#Cc3ccccc3)cc2F)C(=O)C[C@]12CCCc1ncccc12` [Example 5, (5S)-3′-[2,6-Difluoro-4-(2-phenylethynyl)phenyl]-1′-methyl-spiro[7,8-dihydro-6H-quinoline-5,6′-hexahydropyrimidine]-2′,4′-dione], at human mGlu4 receptor, the Emax worked out at 121% and the concentration giving a half-maximal response (EC50) turned out to be 76 nM.

Take `CN1C(=O)N(c2c(F)cc(C#Cc3ccccc3)cc2F)C(=O)C[C@]12CCCc1[nH]ncc12` [Example 12, (4S)-3′-[2,6-Difluoro-4-(2-phenylethynyl)phenyl]-1′-methyl-spiro[1,5,6,7-tetrahydroindazole-4,6′-hexahydropyrimidine]-2′,4′-dione]: at human mGlu4 receptor, the Emax stood at 152% and the 50% effective concentration (EC50) came out at 51 nM.

With `CN1C(=O)N(c2c(F)cc(C#Cc3ccccc3)cc2F)C(=O)C[C@]12CCCc1ncncc12` [Example 7, (5S)-3′-[2,6-Difluoro-4-(2-phenylethynyl)phenyl]-1′-methyl-spiro[7,8-dihydro-6H-quinazoline-5,6′-hexahydropyrimidine]-2′,4′-dione], on human mGlu4 receptor, the Emax was 115% and the EC50 was 65 nM.

For `CN1C(=O)N(c2c(F)cc(C#Cc3ccccc3)cc2F)C(=O)C[C@]12CCCc1c2cnn1C` [Example 14, (4S)-3′-[2,6-Difluoro-4-(2-phenylethynyl)phenyl]-1,1′-dimethyl-spiro[6,7-dihydro-5H-indazole-4,6′-hexahydropyrimidine]-2′,4′-dione], at human mGlu4 receptor, the Emax amounted to 151% and the EC50 is 75 nM.

Turning to `CN1C(=O)N(c2c(F)cc(C#Cc3ccccc3)cc2F)C(=O)C[C@]12CCOc1ncccc12` [Example 9, (4S)-3′-[2,6-Difluoro-4-(2-phenylethynyl)phenyl]-1′-methyl-spiro[2,3-dihydropyrano[2,3-b]pyridine-4,6′-hexahydropyrimidine]-2′,4′-dione], on human mGlu4 receptor, the Emax was found to be 124% and the EC50 came out at 51 nM.

For `CN1C(=O)N(c2c(F)cc(C#Cc3ccccc3)cc2F)C(=O)C[C@]12CCCc1cnccc12` [Example 6, (5S)-3′-[2,6-Difluoro-4-(2-phenylethynyl)phenyl]-1′-methyl-spiro[7,8-dihydro-6H-isoquinoline-5,6′-hexahydropyrimidine]-2′,4′-dione], on human mGlu4 receptor, the Emax is 115% and the EC50 is 65 nM.
